The results in this text go back to patent US8168675B2, “Compositions and methods for treating neurodegenerative diseases” (Marin Bio Co., Ltd., priority 2008, dated 2012).

What all share (assay type): in vivo
The subject of assay [1] is C57BL/6 (B6) mice. The experiment in a line: Cochlear histopathology (hair cells and SGCs). Particulars: dietary supplementation from 4 to 15 months of age, HE-stained cochlear sections, Control showed severe loss. As to the method: (§1) Details on the methods used to house and feed male inbred C57BL/6 (B6) mice have been described (Pugh et al., Cancer Res. 59:1642 [1999]). Briefly, Mice were divided into five groups: control, α-lipoic acid (ALA), CLA, coenzyme Q10 (CQ), and phenylalanine (PA). The compound treatment groups were fed the same caloric intake as controls, but were supplemented with ALA (150 mg/kg), CLA (5000 mg/kg), CQ (50 mg/kg), and PA (250 mg/kg) from 4 months of age until 15 months of age (FIG. 1).
Detailed protocols for tissue processing have been described (Someya et al., [2007], supra). Briefly, 4% paraformaldehyde-fixed and paraffin-embedded specimens were sliced into 4 μm sections, mounted on silane-coated slides, stained with Haematoxylin and Eosin (HE), and observed under a light microscope (Leica Microsystems, Bannockburn, Ill.). The Rosenthal's canal was divided into three regions: apical, middle and basal (Keithley et al., [2004], supra) and the three regions were used for evaluation of cochlear histopathology. Five mice were used for each group that were the same mice as those used in the ABR tests. Five modiolar sections obtained in every fifth section from one unilateral cochlea were evaluated per mouse. The same animals were used for spiral ganglion cell counting.

Assay [2] concerns C57BL/6 (B6) mice. The experiment in a line: ABR hearing threshold measurement in aged mice (presbycusis model). To be noted: dietary supplementation from 4 to 15 months of age, *P<0.05, n=5 vs Control. As to the method:
as §1
Detailed protocols for ABR measurement have been described (Yamasoba et al., Neurosci Lett. 395:18 [2005]). […] Mice were anesthetized with a mixture of xylazine hydrochloride (10 mg/kg, i.m.) and ketamine hydrochloride (40 mg/kg, i.m.). Five to seven mice per group were used for this study, and the same mice were used for the following histopathological analyses. Data were examined using the two-tailed standard t-test and were tested for statistical significance using a One Way ANOVA test (GraphPad Prisim 5.0, San Diego, Calif.). All data were reported as mean±S.E.M.

The subject of assay [3] is C57BL/6 (B6) mice. The experiment in a line: Spiral ganglion cell counting (SGC density). Particulars: dietary supplementation from 4 to 15 months of age, *P<0.05, n=5. As to the method: as §1
SGCs were identified by the presence of a nucleus. The SGC density was calculated as the number of SGCs per 1 mm^2. Five sections of the unilateral apical turn were evaluated in one cochlea per mouse. Data were analyzed using the two-tailed standard t-test. All data were reported as mean±S.E.M.

For `COC1=C(OC)C(=O)C(C/C=C(\C)CC/C=C(\C)CC/C=C(\C)CC/C=C(\C)CC/C=C(\C)CC/C=C(\C)CC/C=C(\C)CC/C=C(\C)CC/C=C(\C)CCC=C(C)C)=C(C)C1=O` [CQ, coenzyme Q10], in assay [1], the “loss of hair cells and SGCs in the cochleae” value (shortened to “loss of hair cells and SGCs”) is “no or only a few loss”. Also, the “hearing by ABR thresholds at 8 and 32 kHz” value in assay [2] (8 and 32 kHz) is recorded as “normal hearing”. The “mean spiral ganglion cell density vs Control mice” value in assay [3] is on record as “significantly higher”.
On to `O=C(O)CCCCC1CCSS1` (stereo not drawn) [ALA, α-lipoic acid], for which the “loss of hair cells and SGCs” value in assay [1] is reported as “no or only a few loss”. Further, the “hearing by ABR thresholds at 32 kHz” value in assay [2] was “normal hearing”. Also, in assay [3], the “mean spiral ganglion cell density vs Control mice” value is given as “significantly higher”.
On to `N[C@@H](Cc1ccccc1)C(=O)O` [PA, phenylalanine], for which, in assay [1], the “loss of hair cells and SGCs” value is given as “no or only a few loss”. In assay [2], the “hearing by ABR thresholds at 32 kHz” value is reported as “normal hearing”. Further, the “mean spiral ganglion cell density vs Control mice” value in assay [3] is listed as “significantly higher”.
For conjugated linoleic acid [CLA], in assay [2], the “hearing by ABR thresholds at 32 kHz” value was “normal hearing”.
